# Measurements reported in ChEMBL document CHEMBL1201862, “PubChem BioAssay data set” (2004).
#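 Cultured in 96-well plates, cells were exposed to test compound for 48 hours across five concentrations. At the GI50, growth is halved.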 Calls of active or inactive are those of the source. No stated cut-off is given here; in the data, active = GI50 up to about 1.1 µM and inactive = higher.
# Assays:
# Test in all cases: NCI tumour cell line growth inhibition, 48 h
# UO-31 = system: UO-31
# SNB-19 = system: SNB-19
# NCI-H460 = system: NCI-H460
# SR = system: SR
# NCI/ADR-RES = system: NCI/ADR-RES
# U-251 = system: U-251
# MDA-MB-231 = system: MDA-MB-231
# 786-0 = system: 786-0
# MCF7 = system: MCF7
# HOP-92 = system: HOP-92
# UACC-257 = system: UACC-257
# HL-60 = system: HL-60
# UACC-62 = system: UACC-62
# SW-620 = system: SW-620
# KM12 = system: KM12
# MDA-MB-435 = system: MDA-MB-435
# NCI-H522 = system: NCI-H522
# EKVX = system: EKVX
# OVCAR-5 = system: OVCAR-5
# ACHN = system: ACHN
Compound,GI50 (UO-31),GI50 (SNB-19),GI50 (NCI-H460),GI50 (SR),GI50 (NCI/ADR-RES),GI50 (U-251),GI50 (MDA-MB-231),GI50 (786-0),GI50 (MCF7),GI50 (HOP-92),GI50 (UACC-257),GI50 (HL-60),GI50 (UACC-62),GI50 (SW-620),GI50 (KM12),GI50 (MDA-MB-435),GI50 (NCI-H522),GI50 (EKVX),GI50 (OVCAR-5),GI50 (ACHN)
Cc1cc(C)nc(NS(=O)(=O)c2ccc(NC(=O)c3cc([N+](=O)[O-])cc([N+](=O)[O-])c3)cc2)n1,> 100 µM (inactive),> 100 µM (inactive),86.7 µM (inactive),0.0755 µM (active),> 100 µM (inactive),84.3 µM (inactive),> 100 µM (inactive),> 100 µM (inactive),55 µM (inactive),42.5 µM (inactive),16.4 µM (inactive),30.1 µM (inactive),77.3 µM (inactive),> 100 µM (inactive),50.7 µM (inactive),> 100 µM (inactive),,,,
CC1=C(C(=O)OCCc2ccc([N+](=O)[O-])cc2)C(c2ccccc2[N+](=O)[O-])C(C(=O)OC(C)C)=C(C)N1 (stereo not given),4.2 µM (inactive),5.61 µM (inactive),2.6 µM (inactive),2.94 µM (inactive),3.19 µM (inactive),4.73 µM (inactive),4.91 µM (inactive),3.08 µM (inactive),3.78 µM (inactive),,4.04 µM (inactive),2.2 µM (inactive),4.29 µM (inactive),6.89 µM (inactive),3.48 µM (inactive),5 µM (inactive),2.18 µM (inactive),2.36 µM (inactive),31.1 µM (inactive),3.4 µM (inactive)
O=C1/C(=C/c2ccc(Cl)cc2)N=C(c2ccccc2)N1c1ccc(S(=O)(=O)Nc2nccs2)cc1,23.6 µM (inactive),40.7 µM (inactive),57.1 µM (inactive),32.7 µM (inactive),60.5 µM (inactive),36.2 µM (inactive),18.9 µM (inactive),46 µM (inactive),26.1 µM (inactive),28.9 µM (inactive),32.7 µM (inactive),30.5 µM (inactive),18.7 µM (inactive),39.8 µM (inactive),24.8 µM (inactive),23.6 µM (inactive),,31.5 µM (inactive),> 100 µM (inactive),62.5 µM (inactive)
COc1ccc(S(=O)(=O)Nc2ccc(-c3csc(N4C(=O)/C(=C/c5ccccc5)N=C4c4ccccc4)n3)cc2)cc1Cl,5.62 µM (inactive),44.2 µM (inactive),31.3 µM (inactive),28.1 µM (inactive),45.4 µM (inactive),23.7 µM (inactive),16.1 µM (inactive),46.5 µM (inactive),36.8 µM (inactive),24.4 µM (inactive),30.9 µM (inactive),24.6 µM (inactive),16.8 µM (inactive),43.7 µM (inactive),33.7 µM (inactive),27.5 µM (inactive),39 µM (inactive),,47.2 µM (inactive),34.8 µM (inactive)
COc1c(C)c(C/C=C(\C)CC/C=C(\C)CC/C=C(\C)CC/C=C(\C)CCC=C(C)C)c(OC)c(OC)c1OC,21.6 µM (inactive),> 100 µM (inactive),8.81 µM (inactive),22.9 µM (inactive),25 µM (inactive),79.6 µM (inactive),28.3 µM (inactive),16.9 µM (inactive),51.1 µM (inactive),15.6 µM (inactive),80.5 µM (inactive),,> 100 µM (inactive),97.7 µM (inactive),14.7 µM (inactive),31.1 µM (inactive),16 µM (inactive),44.4 µM (inactive),> 100 µM (inactive),16.4 µM (inactive)
CC1(C)S[C@@H]2[C@H](NC(=O)/C=C/c3ccccc3)C(=O)N2[C@H]1C(=O)O,> 100 µM (inactive),> 100 µM (inactive),> 100 µM (inactive),> 100 µM (inactive),> 100 µM (inactive),> 100 µM (inactive),> 100 µM (inactive),> 100 µM (inactive),> 100 µM (inactive),> 100 µM (inactive),> 100 µM (inactive),> 100 µM (inactive),> 100 µM (inactive),> 100 µM (inactive),> 100 µM (inactive),> 100 µM (inactive),> 100 µM (inactive),,> 100 µM (inactive),> 100 µM (inactive)
CCC[C@@H]1C(=O)N=C(N)N1C(=O)OCc1ccccc1,> 100 µM (inactive),> 100 µM (inactive),> 100 µM (inactive),> 100 µM (inactive),> 100 µM (inactive),> 100 µM (inactive),> 100 µM (inactive),> 100 µM (inactive),> 100 µM (inactive),,> 100 µM (inactive),> 100 µM (inactive),> 100 µM (inactive),> 100 µM (inactive),> 100 µM (inactive),> 100 µM (inactive),> 100 µM (inactive),> 100 µM (inactive),> 100 µM (inactive),> 100 µM (inactive)
